From the supplement of paper PMC6045584
± gives the standard deviation of the averaged measurements.

Experiments:
MK0752 = compound: O=C(O)CC[C@H]1CC[C@@](c2cc(F)ccc2F)(S(=O)(=O)c2ccc(Cl)cc2)CC1 [MK0752]; assay: surviving fraction relative to DMSO-only wells; higher = less growth inhibition; settings: exposure time: 5 days
Procedure, shortened: (§1)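 Log-phase tumour cell lines, 250–500 cells per well in 384-well plates, received inhibitors at 0.5, 1, 5, 10, 50, 100, 500 and 1000 nM continuously for five days, starting 24 hours after seeding. Viability was quantified with CellTiter-Glo luminescence and normalised to the median of DMSO-only wells to give surviving fraction. Three screens were run per line, and a line stayed in only with replicate Pearson r >0.7 and median Z' >0.3.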

[1] = compound: O=C(NOCC1CC1)c1ccc(F)c(F)c1Nc1ccc(I)cc1Cl; assay: as above; settings: exposure time: 5 days
Procedure, shortened: as §1

Row | Test System | surviving fraction (MK0752; 0.5 nM) | surviving fraction (MK0752; 1 nM) | surviving fraction (MK0752; 5 nM) | surviving fraction (MK0752; 10 nM) | surviving fraction (MK0752; 50 nM) | surviving fraction (MK0752; 100 nM) | surviving fraction (MK0752; 500 nM) | surviving fraction (MK0752; 1000 nM) | surviving fraction ([1]; 0.5 nM) | surviving fraction ([1]; 1 nM) | surviving fraction ([1]; 5 nM) | surviving fraction ([1]; 10 nM) | surviving fraction ([1]; 50 nM) | surviving fraction ([1]; 100 nM) | surviving fraction ([1]; 500 nM) | surviving fraction ([1]; 1000 nM)
1 | SG27 HEADNECK | 0.973 ± 0.05 | 0.891 ± 0.052 | 1.05 ± 0.082 | 0.988 ± 0.096 | 1.01 ± 0.066 | 1.08 ± 0.047 | 0.933 ± 0.14 | 0.923 ± 0.16 | 0.918 ± 0.036 | 1.02 ± 0.075 | 0.973 ± 0.11 | 0.986 ± 0.075 | 1.02 ± 0.22 | 0.988 ± 0.017 | 1.13 ± 0.12 | 1.24 ± 0.19
2 | SG28 HEADNECK | 1.15 ± 0.048 | 1.04 ± 0.062 | 1.05 ± 0.055 | 1.1 ± 0.027 | 0.982 ± 0.075 | 1.05 ± 0.044 | 1.12 ± 0.13 | 1.13 ± 0.11 | 0.871 ± 0.049 | 1.03 ± 0.061 | 0.836 ± 0.024 | 0.932 ± 0.099 | 0.801 ± 0.06 | 0.781 ± 0.065 | 0.633 ± 0.023 | 0.616 ± 0.017
3 | SG31 HEADNECK | 1.16 ± 0.18 | 1.07 ± 0.14 | 1.02 ± 0.2 | 0.991 ± 0.21 | 0.881 ± 0.14 | 0.963 ± 0.099 | 1.04 ± 0.17 | 1.11 ± 0.095 | 1.02 ± 0.087 | 0.977 ± 0.097 | 0.951 ± 0.14 | 1.06 ± 0.18 | 0.778 ± 0.12 | 0.756 ± 0.11 | 0.575 ± 0.032 | 0.547 ± 0.088
4 | SG32 HEADNECK | 1.11 ± 0.091 | 1.2 ± 0.039 | 1.26 ± 0.085 | 1.23 ± 0.11 | 1.21 ± 0.23 | 1.18 ± 0.039 | 0.972 ± 0.14 | 1.05 ± 0.086 | 0.546 ± 0.12 | 0.858 ± 0.042 | 0.883 ± 0.22 | 1.03 ± 0.049 | 0.701 ± 0.085 | 0.805 ± 0.065 | 0.751 ± 0.059 | 0.818 ± 0.079
5 | SG43 HEADNECK | 0.854 ± 0.3 | 0.901 ± 0.056 | 1.07 ± 0.43 | 0.862 ± 0.29 | 1.03 ± 0.18 | 0.934 ± 0.16 | 1.61 ± 0.055 | 1.08 ± 0.19 | 1.05 ± 0.079 | 0.969 ± 0.011 | 0.853 ± 0.17 | 0.676 ± 0.16 | 0.567 ± 0.1 | 0.521 ± 0.06 | 0.387 ± 0.07 | 0.333 ± 0.064
6 | SIHA CERVIX | 1.1 ± 0.046 | 1.15 ± 0.024 | 1.12 ± 0.044 | 1.15 ± 0.053 | 1.15 ± 0.025 | 1.21 ± 0.085 | 1.16 ± 0.11 | 1.14 ± 0.051 | 0.754 ± 0.016 | 0.8147 ± 0.0075 | 0.955 ± 0.058 | 0.923 ± 0.027 | 0.899 ± 0.018 | 0.873 ± 0.06 | 0.709 ± 0.042 | 0.765 ± 0.067
7 | SJSA1 BONE | 1 ± 0.03 | 1.09 ± 0.044 | 1.02 ± 0.089 | 1.09 ± 0.06 | 1.08 ± 0.036 | 1.14 ± 0.02 | 1.03 ± 0.027 | 1.07 ± 0.044 | 1.05 ± 0.036 | 1.06 ± 0.035 | 1.119 ± 0.0046 | 1.11 ± 0.013 | 0.968 ± 0.025 | 0.925 ± 0.027 | 0.742 ± 0.028 | 0.591 ± 0.046
8 | SKBR3 BREAST | 0.854 ± 0.14 | 1.05 ± 0.18 | 1.02 ± 0.06 | 0.917 ± 0.086 | 1.11 ± 0.092 | 1.08 ± 0.05 | 0.961 ± 0.11 | 1.06 ± 0.11 | 1.12 ± 0.17 | 1.1 ± 0.13 | 1.11 ± 0.07 | 1.1 ± 0.26 | 1.08 ± 0.19 | 1.05 ± 0.14 | 1.06 ± 0.14 | 1.05 ± 0.13
9 | SNU475 LIVER | 1.06 ± 0.028 | 1 ± 0.036 | 0.97 ± 0.052 | 1.02 ± 0.011 | 1.01 ± 0.019 | 1.03 ± 0.036 | 1.03 ± 0.037 | 0.965 ± 0.036 | 0.432 ± 0.042 | 0.908 ± 0.038 | 0.802 ± 0.022 | 0.941 ± 0.018 | 0.439 ± 0.015 | 0.883 ± 0.013 | 0.676 ± 0.018 | 0.741 ± 0.039
10 | SUM44 BREAST | 0.998 ± 0.06 | 0.992 ± 0.035 | 0.983 ± 0.033 | 1.015 ± 0.0072 | 1.04 ± 0.051 | 1.09 ± 0.025 | 1.02 ± 0.031 | 1.05 ± 0.03 | 0.951 ± 0.042 | 0.954 ± 0.062 | 1.04 ± 0.013 | 1.05 ± 0.032 | 1.07 ± 0.064 | 1.03 ± 0.043 | 1.02 ± 0.082 | 1.03 ± 0.047
11 | SUM149 BREAST | 0.927 ± 0.072 | 0.995 ± 0.09 | 1.03 ± 0.062 | 1.05 ± 0.03 | 1.01 ± 0.08 | 0.98 ± 0.15 | 0.884 ± 0.014 | 0.935 ± 0.068 | 0.375 ± 0.011 | 1.04 ± 0.067 | 0.908 ± 0.059 | 0.912 ± 0.032 | 0.512 ± 0.024 | 0.755 ± 0.1 | 0.407 ± 0.031 | 0.277 ± 0.053
12 | SUM149.B1*.S BREAST | 1.11 ± 0.05 | 1.12 ± 0.044 | 1.1 ± 0.041 | 1.117 ± 0.004 | 1.18 ± 0.046 | 1.2 ± 0.029 | 1.03 ± 0.045 | 1.06 ± 0.068 | 0.5813 ± 0.0045 | 0.956 ± 0.018 | 0.835 ± 0.058 | 0.945 ± 0.034 | 0.6543 ± 0.0045 | 0.789 ± 0.0088 | 0.503 ± 0.024 | 0.459 ± 0.05
13 | SUM159 BREAST | 1.16 ± 0.12 | 1.15 ± 0.098 | 1.13 ± 0.075 | 1.13 ± 0.085 | 1.06 ± 0.044 | 1.11 ± 0.022 | 1.13 ± 0.057 | 1.11 ± 0.035 | 1.06 ± 0.29 | 1.03 ± 0.12 | 1.11 ± 0.36 | 1.03 ± 0.24 | 0.84 ± 0.2 | 0.726 ± 0.1 | 0.518 ± 0.11 | 0.455 ± 0.023
14 | SYO1 SYNOVIAL | 1 ± 0.024 | 0.981 ± 0.029 | 0.9374 ± 0.0056 | 1 ± 0.042 | 1.04 ± 0.082 | 1.01 ± 0.02 | 0.98 ± 0.052 | 0.971 ± 0.018 | 0.469 ± 0.17 | 0.941 ± 0.093 | 0.833 ± 0.065 | 0.888 ± 0.034 | 0.542 ± 0.11 | 0.885 ± 0.023 | 0.784 ± 0.058 | 0.8681 ± 0.0032
15 | T47D BREAST | 1.07 ± 0.025 | 1.07 ± 0.011 | 1.04 ± 0.022 | 1.1 ± 0.015 | 1.11 ± 0.071 | 1.14 ± 0.018 | 1.09 ± 0.044 | 1.11 ± 0.02 | 0.8871 ± 0.0062 | 0.999 ± 0.027 | 0.943 ± 0.018 | 1.008 ± 0.0089 | 0.899 ± 0.011 | 1.06 ± 0.04 | 0.996 ± 0.075 | 0.977 ± 0.07
16 | U2OS BONE | 1.05 ± 0.06 | 1.06 ± 0.015 | 1.08 ± 0.019 | 1.08 ± 0.034 | 1.1 ± 0.075 | 1.18 ± 0.031 | 1.02 ± 0.041 | 1.04 ± 0.058 | 1.03 ± 0.016 | 1.03 ± 0.019 | 1.02 ± 0.036 | 1.07 ± 0.042 | 0.983 ± 0.026 | 0.996 ± 0.035 | 0.95 ± 0.03 | 0.876 ± 0.03
17 | VCAP PROSTATE | 1.04 ± 0.051 | 1.15 ± 0.15 | 1.11 ± 0.14 | 1.19 ± 0.13 | 1.12 ± 0.065 | 1.22 ± 0.12 | 1.14 ± 0.076 | 1.12 ± 0.15 | 0.925 ± 0.048 | 0.984 ± 0.082 | 0.923 ± 0.042 | 1.01 ± 0.12 | 0.86 ± 0.079 | 1.08 ± 0.068 | 1.05 ± 0.13 | 0.975 ± 0.0027
18 | VP229 BREAST | 1.39 ± 0.087 | 1.15 ± 0.2 | 1.13 ± 0.092 | 1.17 ± 0.07 | 1.1 ± 0.2 | 1.05 ± 0.14 | 1.01 ± 0.14 | 0.901 ± 0.084 | 1.11 ± 0.054 | 1.16 ± 0.099 | 1.24 ± 0.14 | 1.08 ± 0.041 | 1.03 ± 0.13 | 0.908 ± 0.043 | 0.782 ± 0.039 | 0.769 ± 0.074
19 | YAMATO SYNOVIAL | 1.34 ± 0.1 | 1.39 ± 0.13 | 1.51 ± 0.082 | 1.39 ± 0.058 | 1.49 ± 0.12 | 1.46 ± 0.11 | 1.49 ± 0.063 | 1.41 ± 0.1 | 0.319 ± 0.026 | 1.07 ± 0.11 | 0.9 ± 0.084 | 1.2 ± 0.044 | 0.483 ± 0.013 | 1.1 ± 0.14 | 0.789 ± 0.064 | 0.928 ± 0.049
20 | ZR751 BREAST | 1.21 ± 0.034 | 1.15 ± 0.031 | 1.13 ± 0.13 | 1.06 ± 0.089 | 1.09 ± 0.041 | 1.17 ± 0.083 | 1.14 ± 0.15 | 1.25 ± 0.24 | 0.804 ± 0.14 | 0.868 ± 0.022 | 0.806 ± 0.049 | 0.814 ± 0.056 | 0.697 ± 0.071 | 0.846 ± 0.03 | 0.677 ± 0.03 | 0.682 ± 0.011
